Results on 6 molecules are retold here after patent publication US9322049B2, “Activation and activators of SirT6” (CORNELL UNIVERSITY, priority 2009, dated 2016).

Where two headings read alike, the source gives them in different places. Bounds are passed on as bounds.

The target in data set [1] is T1, SirT6 (Homo sapiens, UniProt Q8N6T7).
T1 construct: The protein expression and purification were the same as the full length SIRT6 as described above; made in house; host or cells: E. coli BL21 Codon-plus RIPL
The data set is described as follows: Activation of SIRT6 by nucleosides or nucleotides, HPLC of AADPR (Example 8). The note with it: 800 μM NAD+, 500 μM H3 peptide, 11.3 μM SIRT6. The format is biochemical. As for the experimental part:
Reactions containing 800 μM NAD^+, 500 μM H3 peptide, and 100 mM phosphate buffer at pH 7.5, with varying concentrations of nucleosides or nucleotides were initiated by addition of SIRT6 enzyme to a concentration of 11.3 μM. Reactions were incubated for 2 hours at 37° C. and quenched by addition of trifluoroacetic acid to pH 2. After centrifugation to remove precipitates, reactions were injected on HPLC for activity analysis. Production of 2′- and 3′-AADPR were analyzed at 260 nm.

In data set [2] the target is T1, SirT6. Kind of data set: Gel shift assay of DNA association to SirT6 (Example 5). The format is binding. The conditions noted are these: 1 mM suramin; 50 ng/μl linearized pSTBlue, 10 μM SirT6. As for the experimental part:
Lane 1, DNA+NAD; Lane 2, DnA+H3; Lane 3, DNA+NAD+H3; Lane 4, DNA+SirT6; Lane 5, DNA+NAD+SirT6; Lane 6, DNA+H3+SirT6; Lane 7, DNA+NAD+H3+SirT6; Lane 8, DNA+SirT6+1 mM suramin; Lane 9, DNA+NAD+SirT6+1 mM suramin; Lane 10, DNA+H3+SirT6+1 mM suramin; Lane 11, DNA+NAD+H3+SirT6+1 mM suramin; Lane 12, DNA only. […] Lane 1, DNA+H3; Lane 2, DNA+H4; Lane 3, DNA+SirT6; Lane 4, DNA+H3+SirT6; Lane 5, DNA+H4+SirT6; Lane 6, DNA+NAD+H3+SirT6; Lane 7, DNA+NAD+H4+SirT6; Lane 8, DNA+SirT6+1 mM suramin; Lane 9, DNA+H3+SirT6+1 mM suramin; Lane 10, DNA+H4+SirT6+1 mM suramin; Lane 11, DNA+NAD+H3+SirT6+1 mM suramin; Lane 12, DNA+NAD+H4+SirT6+1 mM suramin; Lane 13, DNA only. 6 μl of each sample involving 50 ng/μl linearized pSTBlue plasmid, 800 μM NAD, 10 μM SirT6, 480 μM H3/H4, and/or 1 mM suramin were loaded to 0.6% native agarose gel containing ethidium bromide and ran at 100 V for one and half hours. DNA bound to SirT6 stayed in the wells and free DNA ran to the bottom of the gel. The top arrow indicated the large complex formed by DNA and SirT6.
The plasmid pSTBlue was linearized by EcoRI, BamHI, or EcoRV, and then purified by DNA gel extraction kit (Novagen) or […]™ III kit (MP Biomedicals, LLC). 6 μl of each sample contained 50 ng/μl of linearized pSTBlue, 800 μM NAD, 10 μM SirT6/truncated form, 480 μM H3, and/or 1 mM suramin as indicated. […]
(In general: Mobility shift assays separate free from complexed probe on a gel.)

Another data set deals with T2, SirT6-DNA complex (Homo sapiens, UniProt Q8N6T7).
T2 construct: The protein expression and purification were the same as the full length SIRT6 as described above; made in house; host or cells: E. coli BL21 Codon-plus RIPL
Kind of data set: Suramin competition with binding of linearized DNA to SIRT6 (Example 6). The note with it: for Kd: read-out: Kd of suramin for dissociation of linearized DNA from SirT6. As for the experimental part: The linearized DNA was incubated with SirT6 and Ni-NTA resin. The resin was washed as described in Materials and Methods, and the complex of SirT6-DNA was dissociated by 1 mM suramin. The parallel experiments were done in the presence of 500 uM H3 peptide. DNA bound to SirT6 was quantified and fit to Michaelis-Menten equation to get Kd of DNA binding to the enzyme. […] The single stranded DNA was incubated with SirT6 and Ni-NTA resin. The resin was washed and the complex of SirT6-ssDNA was dissociated by 1 mM suramin. The parallel experiments were done in the presence of 500 uM H3 peptide. […] The linearized DNA was incubated with SirT6 and Ni-NTA resin with or without H3 peptide. After washing, the resin was incubated with different concentration of surmain. The dissociated DNA was quantified by gel electrophoresis. […] After the resin was washed, DNA was dissociated with 1 mM suramin and quantified by gel electrophoresis. Lane 1, 150 ng circular pSTBlue (C-pSTBlue); Lane 2, 150 ng pSTBlue cut with BamHI (B-pSTBlue); Lane 3, 150 ng pSTBlue cut with EcoRV (E-pSTBlue); Lane 4, circular pSTBlue bound to SirT6; Lane 5, pSTBlue cut with BamHI bound to SirT6; Lane 6, pSTBlue cut with EcoRV bound to SirT6; Lane 7, circular pSTBlue bound to SirT6 in the presence of H3; Lane 8, pSTBlue cut with BamHI bound to SirT6 in the presence of H3; Lane 9, pSTBlue cut with EcoRV bound to SirT6 in the presence of H3; Lane 10, DNA ladder.
In order to test if suramin competed with the binding of DNA to SIRT6, 20 ng/μl pSTBlue was incubated with 5 μM SIRT6, 25% slurry Ni-NTA resin, and/or 1 mM H3 peptide. After incubation for 1 hour at room temperature, the SIRT6-DNA-resin complex was washed with 10 and 20 mM imidazole, 100 mM phosphate buffer, pH 7.5 as described above. The SIRT6-DNA-resin complex was incubated with different concentrations of suramin. The dissociated DNA was then quantified by 0.8% agarose gel electrophoresis and the DNA level was fitted to Michaelis-Menten equation using the software Kaleidagraph.

The target of data set [3] is T1, SirT6. Kind of data set: Determination of Kd of suramin for SirT6 activation by HPLC (Example 1). The format is biochemical. The method, then:
FIG. 2C depicts the determination of Kd of suramin for activation of SirT6. […] After 2 hours incubation at 37° C., the deacetylated H3 was separated from H3 by gradient (0˜30%) acetonitrile in 0.1% TFA using a C18 column, and analyzed by integrating its area at 215 nm wavelength.
The precipitated proteins and other insolubles were removed by centrifugation at 15,000 rpm for 5 minutes. The peptides were separated by a Waters Xterra RP-18 column using a gradient of 0-30% acetonitrile in 0.1% trifluoroacetic acid. […] The turnover rates versus […] were plotted and fitted to the equation: Activation (Fold)=1+m*x/(Kd+x) using the software Kaleidagraph.

Data set [4] addresses T3, truncated SirT6 (deletion of N terminal 17 amino acids) (Homo sapiens, UniProt Q8N6T7).
T3 construct: The truncated SIRT6 was cloned similarly with the full length SIRT6; poly-histidine (pET28a) (N); made in house; host or cells: E. coli BL21 Codon-plus RIPL
Kind of data set: Deacetylation rate of truncated SirT6 with suramin or single stranded DNA. It is filed as biochemical. The conditions noted are these: 50 μM suramin or 100 ng/μl single stranded DNA; 800 μM NAD, 480 μM H3, 10 μM enzyme. From the text:
The deacetylation rate of different truncated SirT6 was normalized to the rate of full length SirT6 for the comparison.
The truncated SIRT6 was cloned similarly with the full length SIRT6. The primers used in the cloning of different truncated SIRT6 are the following: SIRT6Δ2-7 Forward 5′ GCTAGC ATGGGGCTGTCGCCGTACGCG 3′ (SEQ ID NO: 4); SIRT6Δ2-12 Forward 5′ GCTAGC ATG […] 3′ (SEQ ID NO: 5); SIRT6Δ2-18 Forward 5′ GCTAGC ATGGGCCTCCCGGAGATCTTCGAC 3′ (SEQ ID NO: 6); SIRT6Δ2-51 Forward 5′ 5′ GCTAGC ATGACGGGTGCCGGCATCAGCACT 3′ (SEQ ID NO: 7). The common reverse primer is 5′[…] 3′ (SEQ ID NO: 8). The truncated SIRT6 was amplified by PCR reaction. The PCR product was then ligated into pSTblue-1 (Novagen). After digestion with NheI and BamHI, the fragment containing SIRT6 gene was ligated into pET28a vector (Novagen). The SIRT6 truncated sequence in pET28a plasmid was confirmed by DNA sequencing, and the plasmid was then transformed into BL21Codon-plus RIPL cells (Stratagene). The protein expression and purification were the same as the full length SIRT6 as described above.

For data set [5], the target named is T1, SirT6. Kind of data set: Determination of Kd of DNA for SirT6 activation by HPLC (Example 2). The note with it: 800 μM NAD, 480 μM H3, 10 μM SirT6, 2 hours 37° C.; unit given as mM. The format is biochemical. The method, then: FIG. 5A depicts a schematic of DNA structure. […] After 2 hours incubation at 37° C., either the deacetylated H3 was separated from H3 in the reaction containing the digested calf thymus DNA or AADPR was separated from other components in the reaction containing ssDNA, the plasmid, or dsDNA.
The plasmid pSTBlue was digested with BamHI and EcoRV and purified by […]™ III kit. […] The AADPR was separated by HPLC and the quantified data were fit into Michaelis-Menten equation to get Km of H3.
In the enzymatic reaction, the following DNA was used.
Calf thymus DNA (USB Corporation), which was digested with EcoRI and then purified using Spinprep Gel DNA Kit (Novagen);
ssDNA (5′ […] 3′ (SEQ ID NO: 9), Integrated DNA Technologies);
dsDNA (forward 5′ […] 3′ (SEQ ID NO: 10), reverse 5′ […] 3′ (SEQ ID NO: 11), Integrated DNA Technologies); and
pSTBlue plasmid, which was amplified using DH5α cells and purified by WIZARD™ PLUS (Midiprep) DNA purification system (Promega).
The precipitated proteins and other insolubles were removed by centrifugation at 15,000 rpm for 5 minutes. DNA in the supernatant was further removed by centrifugation at 15,000 rpm for 10 minutes using Microcon with 10 kDa cutoff (Millipore). In the experiment with the digested calf thymus DNA, the peptides were separated by a Waters Xterra RP-18 column using a gradient of 0-30% acetonitrile in 0.1% trifluoroacetic acid. […]

T2 sequence (Q8N6T7 whole entry, one chain of several): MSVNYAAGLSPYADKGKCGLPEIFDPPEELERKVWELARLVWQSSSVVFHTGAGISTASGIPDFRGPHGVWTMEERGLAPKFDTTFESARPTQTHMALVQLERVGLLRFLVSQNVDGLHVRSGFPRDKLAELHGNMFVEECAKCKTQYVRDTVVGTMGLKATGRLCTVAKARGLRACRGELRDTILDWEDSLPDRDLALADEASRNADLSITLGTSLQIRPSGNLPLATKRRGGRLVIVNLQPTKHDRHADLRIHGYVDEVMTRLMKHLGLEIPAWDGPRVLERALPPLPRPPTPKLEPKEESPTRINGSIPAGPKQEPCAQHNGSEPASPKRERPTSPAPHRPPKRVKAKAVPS
T1 sequence (Q8N6T7 whole entry): as the sequence (Q8N6T7 whole entry, one chain of several) above
T3 sequence (Q8N6T7 with tags, fused parts or gaps): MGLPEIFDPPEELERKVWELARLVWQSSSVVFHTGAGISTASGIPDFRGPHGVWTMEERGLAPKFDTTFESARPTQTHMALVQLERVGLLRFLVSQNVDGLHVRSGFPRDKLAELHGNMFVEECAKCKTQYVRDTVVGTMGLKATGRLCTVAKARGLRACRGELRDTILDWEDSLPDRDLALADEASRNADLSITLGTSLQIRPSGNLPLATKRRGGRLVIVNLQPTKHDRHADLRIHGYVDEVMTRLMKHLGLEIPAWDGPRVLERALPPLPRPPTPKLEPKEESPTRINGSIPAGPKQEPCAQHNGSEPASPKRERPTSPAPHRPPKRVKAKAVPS

Consider `NC(=O)c1ccc[n+]([C@@H]2O[C@H](COP(=O)([O-])O)C(O)C2(Cl)Cl)c1` (stereo partly drawn) [gem-diCl-NMN], for which the SIRT6 activated on SirT6 [1] (at 500 μM) came out at 90% activated at 500 μM.

For `NC(=O)c1ccc[n+]([C@@H]2O[C@H](CO)C(O)C2(Cl)Cl)c1` (stereo partly drawn) [gem-diCl-NR], the SIRT6 activated on SirT6 [1] (at 1 mM) turned out to be 30% activated at 1 mM.

Turning to `NC(=O)c1ccc[n+]([C@@H]2O[C@H](CO)[C@@H](O)C2(F)F)c1` [gem-diF-NR, 1-(2′-deoxy-2′,2′-difluoro-ribofuranosyl)-nicotinamide], on SirT6 [1] (at 500 μM), the SIRT6 activated came to 30% activated at 500 μM.

Take `NC(=O)c1ccc[n+]([C@@H]2O[C@H](CO)[C@H](O)C2F)c1` (stereo partly drawn) [ribo-F-NR, 1-(2-deoxy-2-fluoro-D-ribofuranosyl)-nicotinamide]: at SirT6 [1] (at 550 μM), the SIRT6 activated is on record as 17% activated at 550 μM.

With `Cc1ccc(C(=O)Nc2ccc(S(=O)(=O)O)c3cc(S(=O)(=O)O)cc(S(=O)(=O)O)c23)cc1NC(=O)c1cccc(NC(=O)Nc2cccc(C(=O)Nc3cc(C(=O)Nc4ccc(S(=O)(=O)O)c5cc(S(=O)(=O)O)cc(S(=O)(=O)O)c45)ccc3C)c2)c1` [suramin], the “Association of DNA to SirT6” value on SirT6 [2] is listed as “weakened”. In addition, the “Vmax of dissociated DNA” value at SirT6-DNA complex (in the absence of H3) is 6.37 ng/µL; on SirT6-DNA complex (in the presence of H3) it was 17.8 ng/µL. In addition, the results for the Kd at SirT6-DNA complex (in the absence of H3), on SirT6-DNA complex (in the presence of H3) and on SirT6 [3] were 72.4 µM, 129 µM and 54.7 µM, respectively. Also, the “Activation of truncated SirT6 deacetylation” value in data set [4] is reported as “lost of activation”.

B1: dsDNA: dsDNA, forward SEQ ID NO: 10, reverse SEQ ID NO: 11, Integrated DNA Technologies (nucleic acid)
sense: AAGCATTTATCAGGGTTATTGTCTCATGAGCGGAT
antisense: ATCCGCTCATGAGACAATAACCCTGATAAATGCTT
modifications: DNA, backbone and methylation of C not given here
For the molecule B1, the Kd (as a rule, the concentration at which binding is half-saturated) with SirT6 [5] is above 10 mM.
